Our source for the transduced cells eliminated and hCAR.CD138T eliminated values is patent publication US20160017048A1, “TARGETING CD138 IN CANCER” (priority 2013, published 2016).

Assay [1] deals with iC9 suicide gene. The experiment in a line: in vitro elimination of transduced T cells by AP1903 activation of iC9. Type of assay: cell-based. The settings on record: within 24 hrs of in vitro exposure to AP1903 (20-50 nM). As to the method: A stable producer line with a titer >10^6 per mL may be developed. The T-cell transduction efficiency may range from 30% to 40% in hypoxia (FIG. 3). Redirected T cells can eliminate CD138+ targets in coculture experiments in hypoxia and can be rapidly eliminated (>90% of transduced cells) within 24 hrs of in vitro exposure to AP1903 (20-50 nM), the small molecule dimerizer that activates the iC9 suicide gene.

Assay [2] deals with iC9 suicide gene. The experiment in a line: in vivo elimination of hCAR.CD138 T cells by AP1903 in patients. More on the design: species or system human. The settings on record: within 3 hours of AP1903 administration. The text has this:
Persistence and expansion of transferred T cells are estimated using immunophenotype and real-time quantitative PCR assay (Q-PCR) in DNA extracted from PB collected at different time points after T-cell infusions. BM samples are collected at week 6 as part of the clinical evaluation of these patients. Plasma samples are collected and snap frozen at intervals to detect IL-2, IL6, IFNγ and TNFα released by T cells in vivo. One can also seek clinical evidence of antitumor activity by monitoring paraprotein levels and PC BM infiltration at 6, 12 and 24 weeks, for example. Patients are closely monitored for the occurrence of toxicity according to NCI criteria. In the case of grade III-IV toxicity, patients are treated with AP1903 to activate the iC9 gene as previously reported. The iC9 effects are quantified by measuring the loss of CAR+ circulating cells and by changes in the iC9 transgene by QPCR.
The molecular signal of the CAR (which is hypoxia independent) is detected both in PB and BM samples by week 6, even though there may be higher signal in the BM because of the accumulation of CAR T cells. The expression of the CAR by flow cytometry in T cells (which is hypoxia dependent, as it detects protein synthesis) is anticipated to be much higher in BM as compared to PB because MM BM is hypoxic. […]

In the assay on iC9 suicide gene [1], `CC[C@H](C(=O)N1CCCC[C@H]1C(=O)O[C@H](CCc1ccc(OC)c(OC)c1)c1cccc(OCC(=O)NCCNC(=O)COc2cccc([C@@H](CCc3ccc(OC)c(OC)c3)OC(=O)[C@@H]3CCCCN3C(=O)[C@@H](CC)c3cc(OC)c(OC)c(OC)c3)c2)c1)c1cc(OC)c(OC)c(OC)c1` [AP1903] showed a transduced cells eliminated greater than 90%. For the same compound, in the assay on iC9 suicide gene [2], the hCAR.CD138T eliminated is given as greater than 90%.
